# Experimental data published in patent US9212130B2, “Heterocyclic derivative and pharmaceutical composition comprising the same” (SHIONOGI & CO., LTD., priority 2010, dated 2015).
# Biological target: human P2X3 receptor (Homo sapiens (Human), UniProt P56373)
# Test: Evaluation of human P2X3 receptor inhibitory activity (ATP-induced Fluo-3 fluorescence, FDSS 3000)
# Format: cell-based
# Conditions: C6BU-1 cell transfected with human P2X3 receptor gene
# Method: The plate was placed in High-Throughput Screening System FDSS 3000 (Hamamatsu Photonics K.K.). […] Five minutes after, 50 nM ATP solution (50 μL) prepared by dilution with the dilution buffer was dispensed through the built-in automatic dispenser, and the measurement of fluorescence intensity was continued for 3 min. For each well, the specific maximum fluorescence intensity was calculated as the ratio of the maximum fluorescence intensity after addition of the ATP solution to the fluorescence intensity at the starting of the measurement. […] FDSS software (Hamamatsu Photonics K.K.) was used for calculation of the specific maximum fluorescence intensity. IC50 was calculated using Microsoft Excel (Microsoft. Corporation) and XLfit (idbs Ltd.)
# The aforementioned in mM, μM and nM are each means mmol/L, μmol/L and nmol/L, respectively.
# In tables, μM means μmol/L.
# human P2X3 receptor, sequence (P56373 whole entry): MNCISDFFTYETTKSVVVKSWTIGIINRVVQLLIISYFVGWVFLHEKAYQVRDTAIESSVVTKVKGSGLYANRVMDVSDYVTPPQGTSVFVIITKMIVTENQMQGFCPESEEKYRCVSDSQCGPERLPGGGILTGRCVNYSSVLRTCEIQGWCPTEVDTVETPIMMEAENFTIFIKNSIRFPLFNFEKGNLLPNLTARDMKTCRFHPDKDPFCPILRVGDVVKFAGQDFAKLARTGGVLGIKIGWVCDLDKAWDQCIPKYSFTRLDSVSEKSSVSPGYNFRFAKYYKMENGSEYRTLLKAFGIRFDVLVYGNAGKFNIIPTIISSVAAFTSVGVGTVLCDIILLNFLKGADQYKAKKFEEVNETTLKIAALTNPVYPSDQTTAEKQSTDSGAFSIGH
row,Structure (SMILES),IC50
1,"COC(=O)Cn1c(=O)cc(Nc2ccc(OC(C)C)c(F)c2)n(Cc2ccc(Cl)cc2)c1=O [I-104, 1-(4-chlorobenzyl)-6-(3-fluoro-4-isopropoxyphenylamino)-3-(methoxycarbonylmethyl)pyrimidine-2,4(1H,3H)-dion]",0.096 µM
2,"CC(C)Oc1ccc(Nc2cc(=O)n(CC(=O)O)c(=O)n2Cc2ccc(Cl)cc2)cc1F [I-105, 1-(4-chlorobenzyl)-6-(3-fluoro-4-isopropoxyphenylamino)-3-(hydroxycarbonylmethyl)pyrimidine-2,4(1H,3H)-dion]",0.412 µM
3,COC(=O)C(C)(C)Cn1c(=O)cc(Nc2cccc(C(F)(F)F)c2)n(Cc2ccc(Cl)cc2)c1=O [I-107],0.051 µM
4,"COC(=O)C(C)(C)Cn1c(=O)cc(Nc2cccc(C(F)(F)F)n2)n(Cc2ccc(Cl)cc2)c1=O [I-108, 1-(4-chlorobenzyl)-3-(2-methoxycarbonyl-2-methylpropyl)-6-(6-trifluoromethyl-2-pyridylamino)pyrimidine-2,4(1H,3H)-dion]",0.061 µM
5,"CC(C)Oc1ccc(Nc2nc(OCCO)c3ccccc3c2C(=O)c2ccc(Cl)cc2)cc1F [I-110, 4-(4-chlorobenzoyl)-3-(3-fluoro-4-isopropoxyphenylamino)-1-(2-hydroxyethoxy)isoquinoline]",0.405 µM
6,CC(C)Oc1ccc(NC2=CC(O)N(CC(=O)NC(CO)CO)C(=O)N2Cc2ccc(Cl)cc2)cc1F (stereo not drawn) [I-111],0.011 µM
7,CC(C)(CN1C(=O)N(Cc2ccc(Cl)cc2)C(Nc2cccc(C(F)(F)F)c2)=CC1O)C(=O)O (stereo not drawn) [I-113],0.072 µM
8,"CC(C)(Cn1c(=O)cc(Nc2cccc(C(F)(F)F)n2)n(Cc2ccc(Cl)cc2)c1=O)C(=O)O [I-114, 1-(4-chlorobenzyl)-3-(2-hydroxycarbonyl-2-methylpropyl)-6-(6-trifluoromethyl-2-pyridylamino)pyrimidine-2,4(1H,3H)-dion]",0.16 µM
9,CCOC(=O)CCC1=CN(Cc2ccc(Cl)cc2)C(Nc2ccc(OC(C)C)c(Cl)c2)=NC1O (stereo not drawn) [I-115],0.051 µM
10,CCOC(=O)CCC1CN(Cc2ccc(Cl)cc2)C(Nc2ccc(OC(C)C)c(Cl)c2)=NC1=O (stereo not drawn) [I-116],0.315 µM
11,CCOC(=O)c1cn(Cc2ccc(Cl)cc2)c(Nc2ccc(OC(C)C)c(Cl)c2)nc1=O [I-125],0.243 µM
12,CCOC(=O)c1cnc(Nc2ccc(OC(C)C)c(Cl)c2)n(Cc2ccc(Cl)cc2)c1=O [I-126],0.05 µM
13,CC(C)Oc1ccc(Nc2ncc(C(=O)O)c(=O)n2Cc2ccc(Cl)cc2)cc1Cl [I-129],0.49 µM
14,"CCOC(=O)/C=C/c1cnc(Nc2ccc(OC(C)C)c(Cl)c2)n(Cc2ccc(Cl)cc2)c1=O [I-132, 2-(3-chloro-4-isopropoxyphenylamino)-3-(4-chlorobenzyl)-5-(2-ethoxycarbonylethenyl) pyrimidine-4(3H)-one]",0.206 µM
15,"CC(C)Oc1ccc(Nc2ncc(N3CCOCC3)c(=O)n2Cc2ccc(Cl)cc2)cc1F [I-138, 2-(3-fluoro-4-isopropoxyphenylamino)-3-(4-chlorobenzyl)-5-(morpholino)pyrimidine-4(3H)-one]",0.201 µM
16,"CC(C)Oc1ccc(Nc2ncc(/C=C/C(=O)O)c(=O)n2Cc2ccc(Cl)cc2)cc1Cl [I-139, 2-(3-chloro-4-isopropoxyphenylamino)-3-(4-chlorobenzyl)-5-(2-hydroxycarbonylethenyl) pyrimidine-4(3H)-one]",0.331 µM
17,"CC(C)Oc1ccc(Nc2nc(=O)c(C(=O)NCCO)cn2Cc2ccc(Cl)cc2)cc1F [I-146, 1-(4-chlorobenzyl)-2-(3-fluoro-4-isopropoxyphenylamino)-5-[N-(2-hydroxyethyl)carbamoyl]pyrimidine-4(1H)-one]",0.383 µM
18,"CCOC(=O)c1cn(Cc2ccc(Cl)cc2)c2cc(Nc3ccccc3)ccc2c1=O [I-148, 1-(4-chlorobenzyl)-7-(phenylamino)-3-(ethoxycarbonyl)quinoline-4(1H)-one]",0.324 µM
19,CC(C)Oc1ccc(Nc2nc(=O)c(C(=O)NC(CO)CO)cn2Cc2ccc(Cl)cc2)cc1F [I-150],0.12 µM
20,CC(C)Oc1ccc(Nc2ncc(C(=O)NCCO)c(=O)n2Cc2ccc(Cl)cc2)cc1F [I-152],0.096 µM
21,CC(C)Oc1ccc(Nc2ncc(C(=O)NC(CO)CO)c(=O)n2Cc2ccc(Cl)cc2)cc1F [I-153],0.059 µM

row,Structure (SMILES),IC50
1,CC(C)Oc1ccc(Nc2ncc(C(=O)N(C)CCO)c(=O)n2Cc2ccc(Cl)cc2)cc1F [I-156],0.509 µM
2,CCOC(=O)/C=C/c1cnc(Nc2ccc(OC(C)C)c(F)c2)n(Cc2ccc(Cl)cc2)c1=O [I-157],0.589 µM
3,CC(C)Oc1ccc(Nc2ncc(NC(=O)OC(C)(C)C)c(=O)n2Cc2ccc(Cl)cc2)cc1F [I-158],0.02 µM
4,COC(=O)[C@H](C)NC(=O)c1cnc(Nc2ccc(OC(C)C)c(F)c2)n(Cc2ccc(Cl)cc2)c1=O [I-164],0.018 µM
5,CNc1ncc(Nc2cccc(C(F)(F)F)c2)c(Cc2ccc(Cl)cc2)n1 [I-190],0.99 µM
6,COC(=O)[C@@H](C)NC(=O)c1cnc(Nc2ccc(OC(C)C)c(F)c2)n(Cc2ccc(Cl)cc2)c1=O [I-197],0.098 µM
7,CC(C)Oc1ccc(Nc2ncc(C(=O)N[C@@H](C)C(=O)O)c(=O)n2Cc2ccc(Cl)cc2)cc1F [I-201],0.229 µM
8,CC(C)Oc1ccc(Nc2ncc(N(C)C(=O)OC(C)(C)C)c(=O)n2Cc2ccc(Cl)cc2)cc1F [I-208],0.05 µM
9,CC(C)Oc1ccc(Nc2nc(=O)c(N3CCOCC3)cn2Cc2ccc(Cl)cc2)cc1F [I-209],0.397 µM
10,COC(=O)[C@@H](C)Cn1c(=O)cc(Nc2ccc(OC(C)C)c(C)c2)n(Cc2ccc(Cl)cc2)c1=O [I-212],0.037 µM
11,COC(=O)[C@@H](C)Cn1c(=O)cc(Nc2ccc(OC(C)C)cn2)n(Cc2ccc(Cl)cc2)c1=O [I-213],0.427 µM
12,COC(=O)[C@@H](C)Cn1c(=O)cc(Nc2ccc(OC(C)C)cc2)n(Cc2ccc(Cl)cc2)c1=O [I-216],0.105 µM
13,CC(C)Oc1ccc(Nc2cc(=O)n(C[C@H](C)C(=O)O)c(=O)n2Cc2ccc(Cl)cc2)nc1 [I-217],0.453 µM
14,CC(C)Oc1ccc(Nc2cc(=O)n(C[C@H](C)C(=O)O)c(=O)n2Cc2ccc(Cl)cc2)cc1 [I-218],0.055 µM
15,CNc1cnc(Nc2ccc(OC(C)C)c(F)c2)n(Cc2ccc(Cl)cc2)c1=O [I-222],0.56 µM
16,CC(C)Oc1ccc(Nc2ncc(NCCCO)c(=O)n2Cc2ccc(Cl)cc2)cc1F [I-223],0.724 µM
17,CC(C)Oc1ccc(Nc2ncc(NCC3CCOCC3)c(=O)n2Cc2ccc(Cl)cc2)cc1F [I-224],0.511 µM
18,"CC(C)Oc1ccc(Nc2nc(=O)c3cc(C(F)(F)F)ccc3n2Cc2ccc(Cl)cc2)cc1Cl [I-227, 1-(4-chlorobenzyl)-2-(3-chloro-4-isopropoxyphenylamine)-6-trifluoromethylquinazoline-4(3H)-one]",0.974 µM
19,CC(C)Oc1ccc(Nc2nc(=O)c(NC(=O)OC(C)(C)C)cn2Cc2ccc(Cl)cc2)cc1F [I-230],0.092 µM
20,CC(C)Oc1ccc(Nc2ncc(NC(=O)CCC(=O)O)c(=O)n2Cc2ccc(Cl)cc2)cc1F [I-231],0.226 µM
21,CC(C)Oc1ccc(Nc2ncc(CCC(=O)O)c(=O)n2Cc2ccc(Cl)cc2)cc1F [I-232],0.681 µM

row,Structure (SMILES),IC50
1,CC(C)Oc1ccc(Nc2ncc(NC(=O)CC3CCOCC3)c(=O)n2Cc2ccc(Cl)cc2)cc1F [I-233],0.049 µM
2,"CC(C)Oc1ccc(Nc2ncc(NC(=O)C3CCOCC3)c(=O)n2Cc2ccc(Cl)cc2)cc1F [I-234, 2-(3-fluoro-4-isopropoxyphenylamino)-3-(4-chlorobenzyl)-5-(tetrahydro-2H-pyrane-4-ylcarbonylamino)pyrimidine-4(3H)-one]",0.004 µM
3,CC(C)Oc1ccc(Nc2ncc(NC(=O)C3CCOCC3)c(=O)n2Cc2ccc(Cl)cc2)cc1 [I-235],0.011 µM
4,CC(C)Oc1ccc(Nc2ncc(NC(=O)C3CCOCC3)c(=O)n2Cc2ccc(Cl)cc2)cc1Cl [I-236],0.006 µM
5,Cc1cc(Nc2ncc(NC(=O)C3CCOCC3)c(=O)n2Cc2ccc(Cl)cc2)ccc1OC(C)C [I-237],0.013 µM
6,CC(C)Oc1ccc(Nc2nc(=O)c(NC(=O)C3CCOCC3)cn2Cc2ccc(Cl)cc2)cc1F [I-238],0.653 µM
7,CC(C)Oc1ccc(Nc2nc(=O)c(NC=O)cn2Cc2ccc(Cl)cc2)cc1F [I-239],0.515 µM
8,COCCC(=O)Nc1cn(Cc2ccc(Cl)cc2)c(Nc2ccc(OC(C)C)c(F)c2)nc1=O [I-240],0.417 µM
9,CC(C)Oc1ccc(Nc2ncc(C(=O)NC3CCOCC3)c(=O)n2Cc2ccc(Cl)cc2)cc1F [I-242],0.067 µM
10,CC(C)Oc1ccc(Nc2ncc(N)c(=O)n2Cc2ccc(Cl)cc2)cc1F [I-243],0.676 µM
11,O=C(Nc1cnc(Nc2ccc(Oc3cc[nH]c(=O)c3)cc2)n(Cc2ccc(Cl)cc2)c1=O)C1CCOCC1 [I-244],0.002 µM
12,O=C(Nc1cnc(Nc2ccc(Oc3cncc(F)c3)cc2)n(Cc2ccc(Cl)cc2)c1=O)C1CCOCC1 [I-245],0.0008 µM
13,CC(=O)Nc1cnc(Nc2ccc(OC(C)C)c(F)c2)n(Cc2ccc(Cl)cc2)c1=O [I-246],0.106 µM
14,CC(C)Oc1ccc(Nc2ncc(NC(=O)C(C)C)c(=O)n2Cc2ccc(Cl)cc2)cc1F [I-247],0.019 µM
15,COCCC(=O)Nc1cnc(Nc2ccc(OC(C)C)c(F)c2)n(Cc2ccc(Cl)cc2)c1=O [I-248],0.024 µM
16,COCC(=O)Nc1cnc(Nc2ccc(OC(C)C)c(F)c2)n(Cc2ccc(Cl)cc2)c1=O [I-249],0.035 µM
17,CCNC(=O)Nc1cnc(Nc2ccc(OC(C)C)c(F)c2)n(Cc2ccc(Cl)cc2)c1=O [I-250],0.007 µM
18,CC(C)Oc1ccc(Nc2ncc(NS(C)(=O)=O)c(=O)n2Cc2ccc(Cl)cc2)cc1F [I-252],0.062 µM
19,CC(C)Oc1ccc(Nc2ncc(N(S(C)(=O)=O)S(C)(=O)=O)c(=O)n2Cc2ccc(Cl)cc2)cc1F [I-253],0.536 µM
20,CC(C)Oc1ccc(Nc2ncc(NC(=O)C(=O)O)c(=O)n2Cc2ccc(Cl)cc2)cc1F [I-254],0.02 µM
21,CC(C)Oc1ccc(Nc2ncc(Br)c(=O)n2Cc2ccc(Cl)cc2)cc1F [I-257],0.319 µM
